Source: patent publication US11512079B2, “Heterocycle substituted pyridine derivative antifungal agents” (Amplyx Pharmaceuticals, Inc., priority 2017, dated 2022)
Values after ≈ are worked out from the molar mass of the structure shown.

Experiments:
C. neoformans H99 [1] = test: Antifungal susceptibility testing, CLSI broth microdilution (Example 496/497); assay type: cell-based, Cryptococcus neoformans
Source text: (§1) Isolates tested. C. neoformans strains H99, DUMC 118.00, DUMC 158.03 and C. gattii strains R272, and RSA-MW-3515 were obtained from Duke University. C. albicans 90028, A. fumigatus MYA3626, C. neoformans 14116, C. neoformans 76484 and the pathogenic Cryptococcus reference strains panel (ATCC MP-11) were obtained from American Type Culture Collection (ATCC, Manassas, Va., USA). The MP-11 panel consists of strains representing eight molecular types and three subtypes of C. neoformans and C. gattii.
(§2) Antifungal susceptibility testing. To establish antimicrobial activity, broth microdilution susceptibility testing was performed according to Clinical and Laboratory Standards Institute (CLSI) guidelines M27-A3 for yeasts and M38-A2 for molds. Compound 2 and analogs were first diluted in DMSO to obtain intermediate dilutions. These were further diluted in microtiter plates to obtain a final concentration of 2 to 0.002 μg/mL. 1 μl of DMSO was added to “No drug” control wells. The solutions were mixed on a plate shaker for 10 mins and plates incubated at 35° C. for 40 to 48 h (C. albicans, A. fumigatus) and 72 h (C. neoformans). The minimum concentration that led to 50% reduction in fungal growth as compared to the control (with the aid of a reading mirror) was determined as the minimum inhibitory concentration (MIC) for C. albicans and C. neoformans. The minimum concentration that led to shortening of hyphae as compared to hyphal growth in DMSO control wells was determined as the minimum effective concentration (MEC) for A. fumigatus (as read for echinocandins). The use of the MIC and MEC endpoints for Compound 2 against yeasts and molds, respectively has been described previously.

C. neoformans H99 [2] = test: Synergy with FLC, standard microtiter checkerboard dilution; assay type: cell-based, Cryptococcus neoformans; conditions: synergy = FICI <0.5, MIC read at 50% inhibition
Protocol: Gwt1 inhibitors are synergistic with FLC. […] Importantly, no antagonism was observed.
as §2

C. neoformans strain H99 [3] = test: Delayed treatment model of cryptococcal meningitis, CD-1 mice; assay type: in vivo, Cryptococcus neoformans; conditions: treatment from 24 h after infection, 7 days; prodrug 60 mg/kg IP QD with 100 mg/kg ABT PO; AMB 3 mg/kg IP; n=5
Protocol: Infection was initiated on Day 1 and treatment was initiated 24 h later (Day 2) rather than 1 h. Treatments were administered for 7 days (final dose on Day 8) and mice were sacrificed on Day 9 for CFU enumeration.
Delayed treatment model. […] Fungal burden data were log10 transformed and evaluated using Kruskal-Wallis tests with Dunn's Multiple Comparison Test for Post-hoc analysis (Prism 5; GraphPad Software, Inc., San Diego, Calif.). A P value of ≤0.05 is considered statistically significant

C. neoformans strain H99 [4] = test: Murine model of cryptococcal meningitis, dosing in the presence of the pan-CYP inhibitor ABT, CD-1 mice; assay type: in vivo, Cryptococcus neoformans; conditions: for reduction of CFU in brain vs untreated control / reduction of CFU in lung vs untreated control: preliminary experiment, 100 mg/kg ABT PO 2 h prior to each dose, n=5
Protocol: Efficacy of exemplary compounds in a murine model of cryptococcal meningitis when dosed in the presence of the pan-CYP inhibitor ABT. […] 100 mg/kg ABT was administered orally to male CD-1 mice 2 h prior to compound administration. Mice were injected with 6.9×10^4 CFU C. neoformans strain H99 per mouse via lateral tail vein at T=0 h. Treatment with each prodrug was initiated about 1 h post-infection by IP administration and continued daily for 7 days with 100 mg/kg ABT administered orally 2 h prior to each dose of compound. The mean log10 CFU/g brain and lung counts in untreated control mice were 7.83±0.09 and 4.67±0.88, respectively (FIG. 1).
[…] A 60 mg/kg dose QD without ABT was also evaluated as a control.
Cryptococcal meningitis model. C. neoformans strain H99 was grown in YPD broth at 30° C. on a shaker (220 rpm) for 24 h, centrifuged (1980 ref) and washed twice in PBS, resuspended in PBS, and quantified by hemacytometric count. CD-1 male mice were infected with ˜5×10^4 CFU per mouse via lateral tail vein injection of 100 μL. Mice were weighed, and treatment was within 1 h after infection. Treatments were administered daily for seven days. Mice were weighed daily and observed for acute and chronic adverse symptoms. Mice were sacrificed on day 8, and brain and left lung were homogenized and cultured for quantitative determination of tissue burden (CFU per gram of tissue). Tissues were homogenized for 25 seconds in […] phosphate buffered saline using two 6.5 mm steel beads and a Mini-Beadbeater 16 (Biospec Products, Inc., Bartlesville, Okla.), and serially diluted in 10-fold steps. Aliquots ([…]) of homogenate were plated and incubated for 3 to 7 days at 37° C. Fungal burden data were log10 transformed and evaluated using Kruskal-Wallis tests with Dunn's Multiple Comparison Test for Post-hoc analysis (Prism 5; GraphPad Software, Inc., San Diego, Calif.). A P value of ≤0.05 is considered statistically significant.

[5] = tested on: C. neoformans US isolates; conditions: cited from earlier work
C. gattii WM276 = test: Antifungal susceptibility testing, CLSI broth microdilution (Example 496/497); assay type: cell-based, Cryptococcus gattii; conditions: 50% reduction in fungal growth
Source text: as §1, §2

A. fumigatus MYA3626 = test: as above; assay type: cell-based, Aspergillus fumigatus
Source text: as §1, §2

[6] = tested on: strains of C. neoformans and C. gattii; test: Activity vs Cryptococcus, summary over the strains tested; assay type: cell-based, Cryptococcus neoformans and Cryptococcus gattii
Source text: (§3) The activity of Gwt1 inhibitors against susceptible and FLC non-susceptible/resistant strains.
as §1
(§4) Antifungal susceptibility testing. To establish antimicrobial activity, broth microdilution susceptibility testing was performed according to Clinical and Laboratory Standards Institute (CLSI) guidelines M27-A3 for yeasts and M38-A2 for molds. Compound 2 and analogs were first diluted in DMSO to obtain intermediate dilutions. These were further diluted in microtiter plates to obtain a final concentration of 2 to 0.002 μg/mL. 1 μl of DMSO was added to “No drug” control wells. The solutions were mixed on a plate shaker for 10 mins and plates incubated at 35° C. for 40 to 48 h (C. albicans, A. fumigatus) and 72 h (C. neoformans). The minimum concentration that led to 50% reduction in fungal growth as compared to the control (with the aid of a reading mirror) was determined as the minimum inhibitory concentration (MIC) for C. albicans and C. neoformans.

C. neoformans isolates = test: Activity vs susceptible and FLC non-susceptible/resistant strains, broth microdilution; assay type: cell-based, Cryptococcus neoformans
Source text: as §3, §1, §4

C. albicans 90028 = test: Antifungal susceptibility testing, CLSI broth microdilution (Example 496/497); assay type: cell-based, Candida albicans
Source text: as §1, §2

C. gattii isolates = test: Activity vs susceptible and FLC non-susceptible/resistant strains, broth microdilution; assay type: cell-based, Cryptococcus gattii
Source text: as §3, §1, §4

[7] = in the presence of ABT, 20 mg/kg Ex. 172 prodrug, 60 mg/kg Ex. 173 prodrug, 80 mg/kg Compound 1

Structure (SMILES): Nc1ncccc1-c1cc(Cc2ccc(OCc3ccccc3)cc2)no1
- MIC (C. neoformans H99 [1]; Cryptococcus neoformans, H99, 72 h, read-out: MIC C. neoformans H99): 0.031 µg/mL (≈ 0.0867 µM)
- fold improved anti-C. neoformans H99 activity compared to Compound 2 (C. neoformans H99 [1]; from MIC values): 8 fold
- FICI in combination with FLC (C. neoformans H99 [2]): 0.37

Structure (SMILES): Nc1c(-c2cc(Cc3ccc(Oc4cccc(F)n4)cc3)no2)ccc[n+]1COP(=O)([O-])O
- reduction of log10 CFU/g brain vs untreated control, delayed treatment (C. neoformans strain H99 [3]): 6.84 log10 CFU/g
- reduction of log10 CFU/g lung vs untreated control, delayed treatment (C. neoformans strain H99 [3]): 4.59 log10 CFU/g
- reduction in lung burden, without ABT (C. neoformans strain H99 [4]; dose response study, 60 mg/kg/day without ABT, non-significant): 0.74 log10 CFU/g
- log10 CFU/g brain reductions at doses of similar AUC (approximately 80 μg·h/mL) (C. neoformans strain H99 [4]; [7]): 2.95 log10 CFU/g
- log10 CFU/g lung reductions at doses of similar AUC (approximately 80 μg·h/mL) (C. neoformans strain H99 [4]; [7]): 3.69 log10 CFU/g
- reduction of CFU in brain vs untreated control (C. neoformans strain H99 [4]; 34 mg/kg QD IP 7 days): 7.05 log10 CFU/g
- reduction of CFU in lung vs untreated control (C. neoformans strain H99 [4]; 34 mg/kg QD IP 7 days): approximately 4.67 log10 CFU/g
- reduction of CFU in brain vs untreated control (C. neoformans strain H99 [4]; 60 mg/kg QD IP 7 days): 7.13 log10 CFU/g
- reduction of CFU in lung vs untreated control (C. neoformans strain H99 [4]; 60 mg/kg QD IP 7 days): approximately 4.67 log10 CFU/g

Structure (SMILES): Nc1nc(=O)[nH]cc1F [5-flucytosine]
- MIC90 versus C. neoformans, US isolates [5]: 8 µg/mL (≈ 62 µM)

Structure (SMILES): C[C@@H]1[C@H](O)[C@@H](C)/C=C/C=C/C=C/C=C/C=C/C=C/C=C/[C@H](O[C@@H]2O[C@H](C)[C@@H](O)[C@H](N)[C@@H]2O)C[C@@H]2O[C@](O)(C[C@@H](O)C[C@@H](O)[C@H](O)CC[C@@H](O)C[C@@H](O)CC(=O)O[C@H]1C)C[C@H](O)[C@H]2C(=O)O [AMB, amphotericin B, reference compound]
- MIC C. gattii WM276 (C. gattii WM276): 0.25 µg/mL (≈ 0.271 µM)
- MIC or MEC A. fumigatus MYA3626 (A. fumigatus MYA3626; MEC, shortening of hyphae, 40 to 48 h): 1 µg/mL (≈ 1.08 µM)
- MIC GEOMEAN ([6]; geometric mean over the 18 isolates of C. neoformans and C. gattii): 0.215 µg/mL (≈ 0.233 µM)
- MIC90 ([6]; panel of 18 isolates of C. neoformans and C. gattii): 0.25 µg/mL (≈ 0.271 µM)
- MIC (C. neoformans isolates; C. neoformans 14116): 0.25 µg/mL (≈ 0.271 µM)
- MIC (C. neoformans isolates; C. neoformans 76484): 0.25 µg/mL (≈ 0.271 µM)
- MIC (C. neoformans isolates; C. neoformans DUMC 118.00 (FLC-resistant)): 0.25 µg/mL (≈ 0.271 µM)
- MIC (C. neoformans isolates; C. neoformans DUMC 158.03 (FLC-resistant)): 1 µg/mL (≈ 1.08 µM)
- MIC (C. neoformans isolates; C. neoformans H99): 0.25 µg/mL (≈ 0.271 µM)
- MIC (C. neoformans isolates; C. neoformans MYA-4564): 0.25 µg/mL (≈ 0.271 µM)
- MIC (C. neoformans isolates; C. neoformans MYA-4565): 0.125 µg/mL (≈ 0.135 µM)
- MIC (C. neoformans isolates; C. neoformans MYA-4566): 0.25 µg/mL (≈ 0.271 µM)
- MIC (C. neoformans isolates; C. neoformans MYA-4567): 0.25 µg/mL (≈ 0.271 µM)
- MIC or MEC C. albicans 90028 (C. albicans 90028; MIC, 50% reduction in growth, 40 to 48 h): 1 µg/mL (≈ 1.08 µM)
- MIC (C. gattii isolates; C. gattii MYA-4093): 0.25 µg/mL (≈ 0.271 µM)
- MIC (C. gattii isolates; C. gattii MYA-4094): 0.25 µg/mL (≈ 0.271 µM)
- MIC (C. gattii isolates; C. gattii MYA-4560): 0.063 µg/mL (≈ 0.0682 µM)
- MIC (C. gattii isolates; C. gattii MYA-4561): 0.25 µg/mL (≈ 0.271 µM)
- MIC (C. gattii isolates; C. gattii MYA-4562): 0.25 µg/mL (≈ 0.271 µM)
- MIC (C. gattii isolates; C. gattii MYA-4563): 0.125 µg/mL (≈ 0.135 µM)
- MIC (C. gattii isolates; C. gattii MYA-4877): 0.25 µg/mL (≈ 0.271 µM)
- MIC (C. gattii isolates; C. gattii RSA-MW-3615 (FLC-resistant)): 0.25 µg/mL (≈ 0.271 µM)
- reduction of log10 CFU/g lung vs untreated control, delayed treatment (C. neoformans strain H99 [3]): 4.02 log10 CFU/g
- MIC C. neoformans H99 (C. neoformans H99 [1]; 50% reduction in fungal growth, 72 h, 35° C.): 0.25 µg/mL (≈ 0.271 µM)
- MIC90 versus C. neoformans, US isolates [5]: 2 µg/mL (≈ 2.16 µM)

Structure (SMILES): CC[C@H](C)C[C@H](C)CCCCCCCCC(=O)N[C@H]1C[C@@H](O)[C@@H](NCCN)NC(=O)[C@@H]2[C@@H](O)CCN2C(=O)[C@H]([C@H](O)CCN)NC(=O)[C@H]([C@H](O)[C@@H](O)c2ccc(O)cc2)NC(=O)[C@@H]2C[C@@H](O)CN2C(=O)[C@H]([C@@H](C)O)NC1=O [CAS, caspofungin, reference compound]
- MIC (A. fumigatus MYA3626; Aspergillus fumigatus, MYA3626, read-out: MIC or MEC A. fumigatus MYA3626): 0.25 µg/mL (≈ 0.229 µM)
- MIC (C. albicans 90028; Candida albicans, 90028, read-out: MIC or MEC C. albicans 90028): 0.5 µg/mL (≈ 0.457 µM)
